{
  "source": "paper PMC5371824",
  "about": "“Phosphatidylinositol (4,5)-bisphosphate dynamically regulates the K2P background K^+ channel TASK-2” (Scientific Reports, 2017)",
  "assay_type_in_all_cases": "biochemical",
  "key": {"[1]": {"target": "T1, TASK-2-K297C (Mus musculus, UniProt F6V9U5, K297C)", "T1 construct": "expressed in transfected cells; host or cells: HEK-293", "T1 sequence (F6V9U5 1-502 K297C)": "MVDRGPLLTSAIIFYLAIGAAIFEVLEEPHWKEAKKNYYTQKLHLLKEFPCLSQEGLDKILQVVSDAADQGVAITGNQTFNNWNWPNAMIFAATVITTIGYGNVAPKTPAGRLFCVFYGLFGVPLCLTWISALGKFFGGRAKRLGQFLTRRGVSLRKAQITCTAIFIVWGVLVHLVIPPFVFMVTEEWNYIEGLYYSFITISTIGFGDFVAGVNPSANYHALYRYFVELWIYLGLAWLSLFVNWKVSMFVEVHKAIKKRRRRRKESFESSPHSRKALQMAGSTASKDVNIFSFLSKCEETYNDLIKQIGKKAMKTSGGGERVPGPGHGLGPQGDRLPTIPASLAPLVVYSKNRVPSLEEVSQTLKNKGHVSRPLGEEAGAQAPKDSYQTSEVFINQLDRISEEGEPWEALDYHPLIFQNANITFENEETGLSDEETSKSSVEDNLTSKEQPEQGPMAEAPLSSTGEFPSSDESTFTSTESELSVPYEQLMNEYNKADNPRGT", "assay": "Excised inside-out patch recording, TASK-2-K297C mutant", "parameters": "key to MTSET effect: ✓ under “MTSET effect” indicates a significant increase in current after treatment with the methanesulfonate reagent; — in all cases stands for no significant effect", "method": "(§1) Figure 6 Scanning of potential sites of interaction of TASK-2 with PI(4,5)P2 by cysteine mutagenesis of intracellular basic residues. (A) Schematic representation of TASK-2 topology showing the sequences of segments of the protein predicted to be intracellular or intracellular-facing. Basic residues are highlighted in red. (B) Recording from an excised inside-out patch of membrane taken from a HEK-293 cell over-expressing TASK-2. The patch was held at −60 mV in the presence of 1 mM ATP. At the intervals indicated by the boxes the intracellular aspect of the membrane was exposed to 300 μM Neomycin and then to 100 μM TPeA. At the end of the TPeA period the patch was additionally exposed to 1 mM MTSET as shown by the black box. (C and D) experiments as in (B), but with inside-out membrane patches obtained from cells expressing the mutants TASK-2-H327C and TASK-2-K297C respectively. In D the reducing agent DTT was also added at 2 mM. (E) Summary of experiments comparing the current before and after treatment with MTSET.\nMus musculus TASK-2 (GenBank accession No. AF319542) plasmid was that obtained from mouse kidney. The cDNAs was subcloned into the pCR3.1 vector. Mutations were made by site-directed mutagenesis into the pCR3.1 vector as previously described[69] and confirmed by sequencing. HEK-293 cells were cultured in Dulbecco’s modified Eagle’s medium (DMEM) and F12 Ham’s medium at a 1:1 ratio and supplemented with 10% fetal calf serum at 37 °C in 5% CO2. For electrophysiological experiments, transient transfections were performed by electroporation, using CD8 cotransfection to identify effectively transfected cells. […] Experiments were performed 4–8 h after electroporation. […]\n(§2) Recordings in the inside-out isolated patch configuration were performed in the gap-free mode at −60 mV. […] Traces shown are prints from crude Clampfit screen shots and quantification was done using the average currents were calculated at intervals using Clampfit after baseline adjustment."}, "[2]": {"target": "T2, TASK-2-H327C (Mus musculus, UniProt F6V9U5, H327C)", "T2 construct": "expressed in transfected cells; host or cells: HEK-293", "T2 sequence (F6V9U5 1-502 H327C)": "T1 sequence (F6V9U5 1-502 K297C) with C297K, H327C", "assay": "Excised inside-out patch recording, TASK-2-H327C mutant", "conditions": "1 mM, brief intracellular exposure in the presence of TPeA", "method": "as §1, with “MTSET. […]” for “MTSET.”\nas §2"}, "[3]": {"target": "T3, TASK-2-K254C (Mus musculus, UniProt F6V9U5, K254C)", "T3 construct": "expressed in transfected cells; host or cells: HEK-293", "T3 sequence (F6V9U5 1-502 K254C)": "T1 sequence (F6V9U5 1-502 K297C) with K254C, C297K", "assay": "Excised inside-out patch recording, TASK-2-K254C mutant", "parameters": "key to MTSET effect: ✓ under “MTSET effect” indicates a significant increase in current after treatment with the methanesulfonate reagent; — in all cases stands for no significant effect", "method": "as §1, with “MTSET. […]” for “MTSET.”\nas §2"}, "[4]": {"conditions": "1 mM, in the presence of TPeA, inside-out patch"}},
  "note": "Changes are numbered by the printed parent chain.",
  "data": [
    {"smiles": "C[N+](C)(C)CCSS(C)(=O)=O.[Cl-]", "note": "[MTSET, [2-(trimethylammonium)ethyl] methanethiosulfonate chloride]", "values": [
      {"measurement": "Effect of MTSET on TASK-2-K297C activity", "setting": "[1]; [4]", "value": "markedly enhanced"},
      {"measurement": "MTSET effect", "setting": "[1]; mutation K297C", "value": "✓"},
      {"measurement": "Effect of MTSET on TASK-2-H327C channel activity", "setting": "[2]", "value": "Neither WT nor H327C channel activity is affected"},
      {"measurement": "Effect of MTSET on TASK-2-K254C activity", "setting": "[3]; [4]", "value": "significantly activated"},
      {"measurement": "MTSET effect", "setting": "[3]; mutation K254C", "value": "✓"}
    ]}
  ]
}
